Laboratory results as given in publication doi:10.1101/2024.08.13.607785v1 (biorxiv, 2024).
pIC50: −log10 of the molar value.

Tests used:
[1] = biological target: Activated CDC42 kinase 1 ; TNK2 ; Q07912 (Homo sapiens, UniProt Q07912); set-up: species or system mixed lysate of K562, MV4-11, THP-1, NCI-H1155; settings: DIA-MS residual binding; binder
[2] = biological target: T1, Dual specificity mitogen-activated protein kinase kinase 5 ; MAP2K5 ; Q13163 (Homo sapiens, UniProt Q13163); set-up: species or system mixed lysate of K562, MV4-11, THP-1, NCI-H1155; settings: DIA-MS residual binding; binder
T1 sequence (Q13163 1-448): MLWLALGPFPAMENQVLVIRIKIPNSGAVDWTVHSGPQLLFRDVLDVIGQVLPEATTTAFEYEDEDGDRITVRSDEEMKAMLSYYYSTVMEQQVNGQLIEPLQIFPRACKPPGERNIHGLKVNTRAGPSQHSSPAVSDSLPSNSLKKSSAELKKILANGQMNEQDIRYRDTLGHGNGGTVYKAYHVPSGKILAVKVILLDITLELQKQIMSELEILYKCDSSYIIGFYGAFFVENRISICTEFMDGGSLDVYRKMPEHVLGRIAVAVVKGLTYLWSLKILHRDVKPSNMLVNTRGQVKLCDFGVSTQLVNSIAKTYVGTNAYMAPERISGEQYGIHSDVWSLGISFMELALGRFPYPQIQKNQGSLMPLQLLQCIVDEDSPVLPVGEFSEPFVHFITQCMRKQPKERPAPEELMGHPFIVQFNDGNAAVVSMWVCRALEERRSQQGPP

[3] = biological target: Dual specificity testis-specific protein kinase 1 ; TESK1 ; Q15569 (Homo sapiens, UniProt Q15569); set-up: species or system mixed lysate of K562, MV4-11, THP-1, NCI-H1155; settings: DIA-MS residual binding; binder
[4] = biological target: T2, Ephrin type-B receptor 2 ; EPHB2 ; P29323 (Homo sapiens, UniProt P29323); set-up: species or system mixed lysate of K562, MV4-11, THP-1, NCI-H1155; settings: DIA-MS residual binding; binder
T2 sequence (P29323 1-1055): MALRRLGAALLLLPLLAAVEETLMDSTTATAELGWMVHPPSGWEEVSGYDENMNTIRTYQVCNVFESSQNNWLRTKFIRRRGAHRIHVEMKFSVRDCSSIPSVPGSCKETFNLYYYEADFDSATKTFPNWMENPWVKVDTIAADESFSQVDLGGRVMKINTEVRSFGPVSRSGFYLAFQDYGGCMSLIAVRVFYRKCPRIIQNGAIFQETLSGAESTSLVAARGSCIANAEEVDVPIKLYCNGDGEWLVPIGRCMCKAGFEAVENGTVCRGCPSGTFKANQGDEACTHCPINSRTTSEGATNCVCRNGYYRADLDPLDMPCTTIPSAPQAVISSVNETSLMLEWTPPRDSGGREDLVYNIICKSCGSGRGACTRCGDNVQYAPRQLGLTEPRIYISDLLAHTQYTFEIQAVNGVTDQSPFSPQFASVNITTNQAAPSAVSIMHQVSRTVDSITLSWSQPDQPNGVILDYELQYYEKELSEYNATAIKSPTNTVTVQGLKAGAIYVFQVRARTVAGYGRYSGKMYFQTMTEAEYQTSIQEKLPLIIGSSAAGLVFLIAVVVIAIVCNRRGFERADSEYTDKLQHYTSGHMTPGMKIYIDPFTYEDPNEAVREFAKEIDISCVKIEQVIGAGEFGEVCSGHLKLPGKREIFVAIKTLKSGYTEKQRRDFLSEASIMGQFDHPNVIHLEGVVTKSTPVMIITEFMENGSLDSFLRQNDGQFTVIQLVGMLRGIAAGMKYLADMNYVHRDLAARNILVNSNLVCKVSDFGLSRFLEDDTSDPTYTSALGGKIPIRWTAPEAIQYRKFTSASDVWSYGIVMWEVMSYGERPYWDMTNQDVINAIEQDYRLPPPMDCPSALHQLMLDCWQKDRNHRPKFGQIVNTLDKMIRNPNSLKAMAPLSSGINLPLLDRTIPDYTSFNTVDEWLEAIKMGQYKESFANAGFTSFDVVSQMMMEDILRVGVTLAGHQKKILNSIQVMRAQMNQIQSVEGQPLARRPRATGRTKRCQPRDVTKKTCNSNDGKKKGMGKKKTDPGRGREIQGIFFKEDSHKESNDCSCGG

[5] = biological target: LIM domain kinase 2 ; LIMK2 ; P53671 (Homo sapiens, UniProt P53671); set-up: species or system mixed lysate of K562, MV4-11, THP-1, NCI-H1155; settings: DIA-MS residual binding; binder
[6] = biological target: Phosphatidylinositol 4-kinase alpha ; PI4KA ; P42356 (Homo sapiens, UniProt P42356); set-up: species or system mixed lysate of K562, MV4-11, THP-1, NCI-H1155; settings: DIA-MS residual binding; binder
[7] = biological target: Tyrosine-protein kinase Fyn ; FYN-2 ; P06241 (Homo sapiens, UniProt P06241); set-up: species or system mixed lysate of K562, MV4-11, THP-1, NCI-H1155; settings: DIA-MS residual binding; binder
[8] = biological target: Tyrosine-protein kinase HCK ; HCK ; P08631 (Homo sapiens, UniProt P08631); set-up: species or system mixed lysate of K562, MV4-11, THP-1, NCI-H1155; settings: DIA-MS residual binding; binder
[9] = biological target: Calcium/calmodulin-dependent protein kinase kinase 1 ; CAMKK1 ; Q8N5S9 (Homo sapiens, UniProt Q8N5S9); experiment: biochemical; set-up: species or system human cell line lysate
[10] = biological target: Cyclin-dependent kinase 19 ; CDK19 ; Q9BWU1 (Homo sapiens, UniProt Q9BWU1); experiment: biochemical; set-up: species or system human cell line lysate
[11] = biological target: Non-receptor tyrosine-protein kinase TYK2 ; TYK2 ; P29597 (Homo sapiens, UniProt P29597); experiment: biochemical; set-up: species or system human cell line lysate
Non-receptor tyrosine-protein kinase TYK2 ; TYK2 ; P29597, sequence (P29597 whole entry): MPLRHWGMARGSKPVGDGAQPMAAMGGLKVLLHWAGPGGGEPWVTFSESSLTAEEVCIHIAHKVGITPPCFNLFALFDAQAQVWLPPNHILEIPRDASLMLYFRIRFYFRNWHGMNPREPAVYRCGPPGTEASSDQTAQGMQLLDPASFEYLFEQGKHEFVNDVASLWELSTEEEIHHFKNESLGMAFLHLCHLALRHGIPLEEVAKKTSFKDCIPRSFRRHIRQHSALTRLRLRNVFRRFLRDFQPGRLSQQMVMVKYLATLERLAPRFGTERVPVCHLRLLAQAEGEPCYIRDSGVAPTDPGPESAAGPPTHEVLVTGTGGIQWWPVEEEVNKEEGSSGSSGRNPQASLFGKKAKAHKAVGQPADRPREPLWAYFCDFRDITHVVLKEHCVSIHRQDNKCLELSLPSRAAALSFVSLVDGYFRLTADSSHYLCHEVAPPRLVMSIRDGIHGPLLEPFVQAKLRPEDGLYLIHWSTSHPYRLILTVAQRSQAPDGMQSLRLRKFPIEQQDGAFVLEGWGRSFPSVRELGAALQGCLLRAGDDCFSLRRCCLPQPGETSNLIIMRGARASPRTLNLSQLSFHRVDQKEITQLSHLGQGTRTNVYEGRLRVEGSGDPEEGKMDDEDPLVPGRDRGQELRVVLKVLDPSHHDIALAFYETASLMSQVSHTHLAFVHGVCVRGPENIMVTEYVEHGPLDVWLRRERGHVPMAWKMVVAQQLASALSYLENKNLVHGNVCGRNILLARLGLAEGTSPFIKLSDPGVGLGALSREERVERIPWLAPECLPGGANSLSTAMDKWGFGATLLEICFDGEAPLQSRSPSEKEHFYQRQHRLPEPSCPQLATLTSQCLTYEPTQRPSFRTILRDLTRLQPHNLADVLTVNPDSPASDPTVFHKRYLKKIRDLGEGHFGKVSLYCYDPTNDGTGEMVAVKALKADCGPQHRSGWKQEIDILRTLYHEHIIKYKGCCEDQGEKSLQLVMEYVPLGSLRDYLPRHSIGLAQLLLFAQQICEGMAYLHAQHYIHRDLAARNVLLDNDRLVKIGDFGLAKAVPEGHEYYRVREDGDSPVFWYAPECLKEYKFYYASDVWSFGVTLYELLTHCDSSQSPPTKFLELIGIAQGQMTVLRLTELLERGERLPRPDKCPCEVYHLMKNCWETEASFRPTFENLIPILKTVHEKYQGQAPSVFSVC

Calcium/calmodulin-dependent protein kinase kinase 1 ; CAMKK1 ; Q8N5S9, sequence (Q8N5S9 whole entry, one chain of several): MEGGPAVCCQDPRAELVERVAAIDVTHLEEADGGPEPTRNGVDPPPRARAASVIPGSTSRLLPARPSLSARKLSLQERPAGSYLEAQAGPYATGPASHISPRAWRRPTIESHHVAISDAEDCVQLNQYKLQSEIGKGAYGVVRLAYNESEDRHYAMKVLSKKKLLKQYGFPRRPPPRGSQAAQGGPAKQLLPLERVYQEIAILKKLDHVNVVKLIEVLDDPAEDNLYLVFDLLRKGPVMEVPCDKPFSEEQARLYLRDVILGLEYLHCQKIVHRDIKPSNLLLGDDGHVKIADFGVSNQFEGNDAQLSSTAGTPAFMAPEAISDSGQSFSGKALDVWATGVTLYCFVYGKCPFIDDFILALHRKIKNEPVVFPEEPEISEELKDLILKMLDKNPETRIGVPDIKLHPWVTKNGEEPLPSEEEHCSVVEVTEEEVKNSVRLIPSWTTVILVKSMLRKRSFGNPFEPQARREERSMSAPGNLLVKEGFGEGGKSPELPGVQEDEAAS
Cyclin-dependent kinase 19 ; CDK19 ; Q9BWU1, sequence (Q9BWU1 whole entry, one chain of several): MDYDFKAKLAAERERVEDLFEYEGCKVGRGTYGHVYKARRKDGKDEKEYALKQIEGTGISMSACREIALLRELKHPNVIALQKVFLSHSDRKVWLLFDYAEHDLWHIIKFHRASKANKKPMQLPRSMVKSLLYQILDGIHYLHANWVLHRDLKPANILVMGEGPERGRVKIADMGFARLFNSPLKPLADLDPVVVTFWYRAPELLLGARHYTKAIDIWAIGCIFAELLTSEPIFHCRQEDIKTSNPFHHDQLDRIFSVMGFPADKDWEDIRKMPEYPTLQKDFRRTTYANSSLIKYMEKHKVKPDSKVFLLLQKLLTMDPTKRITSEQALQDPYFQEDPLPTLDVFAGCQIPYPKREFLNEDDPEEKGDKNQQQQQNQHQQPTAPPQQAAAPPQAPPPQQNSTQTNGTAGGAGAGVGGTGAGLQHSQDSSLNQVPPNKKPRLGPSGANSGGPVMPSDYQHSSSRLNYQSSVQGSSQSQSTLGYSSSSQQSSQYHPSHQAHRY
Phosphatidylinositol 4-kinase alpha ; PI4KA ; P42356, sequence (P42356 whole entry): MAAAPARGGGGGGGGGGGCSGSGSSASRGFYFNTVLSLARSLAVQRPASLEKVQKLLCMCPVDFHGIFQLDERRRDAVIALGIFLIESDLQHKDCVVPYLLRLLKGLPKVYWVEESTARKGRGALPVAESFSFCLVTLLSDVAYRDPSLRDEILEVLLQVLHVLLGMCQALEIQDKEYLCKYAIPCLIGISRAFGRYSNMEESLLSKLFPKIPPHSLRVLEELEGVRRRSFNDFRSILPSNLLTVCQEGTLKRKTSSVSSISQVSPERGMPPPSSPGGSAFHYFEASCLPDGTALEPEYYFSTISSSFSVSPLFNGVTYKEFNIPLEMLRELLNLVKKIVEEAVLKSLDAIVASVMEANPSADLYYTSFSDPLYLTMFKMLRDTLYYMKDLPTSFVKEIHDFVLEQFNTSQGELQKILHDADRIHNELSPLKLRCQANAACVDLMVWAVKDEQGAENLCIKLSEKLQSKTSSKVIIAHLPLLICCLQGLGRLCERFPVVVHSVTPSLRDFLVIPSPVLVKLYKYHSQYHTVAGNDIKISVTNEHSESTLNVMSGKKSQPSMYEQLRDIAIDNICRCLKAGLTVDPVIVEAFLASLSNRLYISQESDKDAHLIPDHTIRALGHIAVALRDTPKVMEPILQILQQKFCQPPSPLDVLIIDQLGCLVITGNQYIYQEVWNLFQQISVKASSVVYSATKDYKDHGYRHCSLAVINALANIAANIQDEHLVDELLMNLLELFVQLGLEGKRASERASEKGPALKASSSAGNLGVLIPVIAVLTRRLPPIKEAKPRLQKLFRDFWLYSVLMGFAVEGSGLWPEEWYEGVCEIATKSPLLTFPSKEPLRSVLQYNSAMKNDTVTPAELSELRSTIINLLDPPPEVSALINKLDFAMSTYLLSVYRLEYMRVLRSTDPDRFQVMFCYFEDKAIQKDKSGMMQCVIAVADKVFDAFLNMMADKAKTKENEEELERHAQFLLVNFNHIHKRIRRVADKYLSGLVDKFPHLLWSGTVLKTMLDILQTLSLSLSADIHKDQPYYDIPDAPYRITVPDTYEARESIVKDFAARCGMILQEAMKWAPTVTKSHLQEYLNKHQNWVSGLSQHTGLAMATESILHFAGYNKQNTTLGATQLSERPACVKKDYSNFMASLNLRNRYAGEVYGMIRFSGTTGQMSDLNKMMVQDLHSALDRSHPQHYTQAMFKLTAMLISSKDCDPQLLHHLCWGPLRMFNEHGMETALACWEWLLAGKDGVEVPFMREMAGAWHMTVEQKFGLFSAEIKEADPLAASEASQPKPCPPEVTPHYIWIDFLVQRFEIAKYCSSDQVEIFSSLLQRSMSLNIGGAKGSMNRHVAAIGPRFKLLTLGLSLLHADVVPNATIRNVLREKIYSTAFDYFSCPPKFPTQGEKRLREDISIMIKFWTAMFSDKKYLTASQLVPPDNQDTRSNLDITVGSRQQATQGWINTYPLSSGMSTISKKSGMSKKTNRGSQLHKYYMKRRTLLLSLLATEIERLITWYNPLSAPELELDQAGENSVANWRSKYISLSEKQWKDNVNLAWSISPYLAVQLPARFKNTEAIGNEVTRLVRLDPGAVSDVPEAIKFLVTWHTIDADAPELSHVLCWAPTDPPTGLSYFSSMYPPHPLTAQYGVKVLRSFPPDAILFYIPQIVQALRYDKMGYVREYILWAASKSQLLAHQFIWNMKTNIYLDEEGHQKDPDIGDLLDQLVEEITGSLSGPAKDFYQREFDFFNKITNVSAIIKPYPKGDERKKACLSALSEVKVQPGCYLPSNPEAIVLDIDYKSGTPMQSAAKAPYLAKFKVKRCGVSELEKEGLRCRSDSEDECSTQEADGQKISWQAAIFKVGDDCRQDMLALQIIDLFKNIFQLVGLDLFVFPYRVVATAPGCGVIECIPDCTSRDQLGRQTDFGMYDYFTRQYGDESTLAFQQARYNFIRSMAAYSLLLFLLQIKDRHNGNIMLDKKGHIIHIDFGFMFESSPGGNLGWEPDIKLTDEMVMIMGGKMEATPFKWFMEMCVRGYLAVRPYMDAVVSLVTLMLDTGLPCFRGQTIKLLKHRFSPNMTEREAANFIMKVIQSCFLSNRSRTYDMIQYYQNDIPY
LIM domain kinase 2 ; LIMK2 ; P53671, sequence (P53671 whole entry, the tested form may be a part): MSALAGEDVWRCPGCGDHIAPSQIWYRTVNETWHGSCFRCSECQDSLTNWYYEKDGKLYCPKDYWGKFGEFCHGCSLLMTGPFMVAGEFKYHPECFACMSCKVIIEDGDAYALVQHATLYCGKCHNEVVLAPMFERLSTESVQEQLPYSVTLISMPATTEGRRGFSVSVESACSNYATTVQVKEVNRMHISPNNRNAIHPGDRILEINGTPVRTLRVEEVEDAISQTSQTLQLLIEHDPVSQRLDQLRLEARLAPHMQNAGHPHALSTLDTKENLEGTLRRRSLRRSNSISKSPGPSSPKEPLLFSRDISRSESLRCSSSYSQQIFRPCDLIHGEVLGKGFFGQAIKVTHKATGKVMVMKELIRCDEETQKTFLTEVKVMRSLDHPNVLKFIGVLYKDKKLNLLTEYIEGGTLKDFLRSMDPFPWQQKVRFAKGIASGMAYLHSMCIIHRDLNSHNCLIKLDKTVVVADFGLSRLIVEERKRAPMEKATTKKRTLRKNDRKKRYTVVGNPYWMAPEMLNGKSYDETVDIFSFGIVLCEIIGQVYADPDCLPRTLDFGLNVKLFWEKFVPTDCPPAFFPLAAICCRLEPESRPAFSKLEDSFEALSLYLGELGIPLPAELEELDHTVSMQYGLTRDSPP

Row | DIA-MS / % Intensity (30 µM/DMSO) [1] [%] | DIA-MS / % Intensity (30 µM/DMSO) [2] [%] | DIA-MS / % Intensity (30 µM/DMSO) [3] [%] | DIA-MS / % Intensity (30 µM/DMSO) [4] [%] | DIA-MS / % Intensity (30 µM/DMSO) [5] [%] | DIA-MS / % Intensity (30 µM/DMSO) [6] [%] | DIA-MS / % Intensity (30 µM/DMSO) [7] [%] | DIA-MS / % Intensity (30 µM/DMSO) [8] [%] | pIC50 [9] | pIC50 [10] | pIC50 [11] | SMILES
1 | 2.81 | 35.82 | 14.82 | 3.776 | 12.29 | 31.23 | 2.543 | 2.086 | – | – | – | Cc1nc(Nc2ncc(C(=O)Nc3c(C)cccc3Cl)s2)cc(N2CCN(CCO)CC2)n1 [dasatinib]
2 | – | – | – | – | – | – | – | – | 6.52 | < 5.00 | < 5.00 | COc1cc(F)ccc1-c1cc(Nc2cc(CS(C)(=N)=O)ccn2)ncc1F (centres unmarked) [BAY-1251152]
3 | – | – | – | – | – | – | – | – | 6.42 | < 5.00 | 5.52 | COc1cc(F)ccc1-c1ncnc(Nc2cccc(C[S@](C)(=N)=O)c2)n1 [BAY-1143572]
